The source of these data is ChEMBL document CHEMBL1212836, “Pyridazinopsoralens of wide chemotherapeutic interest” (Bioorg Med Chem, 2010).

Experiment [1] deals with Nucleic Acid. As to the kind of experiment: Stabilization of supercoiled pBR322 DNA-human recombinant topoisomerase 2 complex assessed as linear DNA formation at 5 to 50 uM after 60 mins. The class given is nucleic-acid assay. Conditions: Escherichia coli.
Experiment [2] concerns HeLa. Description: Cytotoxicity against human HeLa cells after 24 hrs by trypan blue assay in presence of 0.789 J cm-2 of UVA light. The class given is functional, cell-based. Conditions: light or radiation study.
Experiment [3] concerns HL-60. Description: Cytotoxicity against human HL60 cells after 24 hrs by trypan blue assay in presence of 0.789 J cm-2 of UVA light. The class given is functional, cell-based. The note with it: HL-60, light or radiation study.
The test system of experiment [4] is Nucleic Acid. Description: Binding affinity to Salmon testes DNA assessed as drug-DNA complex formation at drug/DNA ratio 0.02 to 0.08 by linear flow dichroism method. Conditions: Salmonidae. The class given is nucleic-acid assay.
For experiment [5], the system named is HL-60. Description: Cytotoxicity against human HL60 cells treated under dark condition after 72 hrs by trypan blue assay. Conditions: HL-60, 72 h. The class given is functional, cell-based.
For experiment [6], the system named is HeLa. As to the kind of experiment: Cytotoxicity against human HeLa cells treated under dark condition after 24 hrs by trypan blue assay. The class given is functional, cell-based.
Experiment [7] deals with DNA topoisomerase 2-alpha (Homo sapiens) (UniProt P11388). As to the kind of experiment: Inhibition of human recombinant topoisomerase 2alpha-mediated relaxation of supercoiled pBR322 DNA after 60 mins by agarose gel electrophoresis.
DNA topoisomerase 2-alpha (Homo sapiens), sequence (P11388 whole entry): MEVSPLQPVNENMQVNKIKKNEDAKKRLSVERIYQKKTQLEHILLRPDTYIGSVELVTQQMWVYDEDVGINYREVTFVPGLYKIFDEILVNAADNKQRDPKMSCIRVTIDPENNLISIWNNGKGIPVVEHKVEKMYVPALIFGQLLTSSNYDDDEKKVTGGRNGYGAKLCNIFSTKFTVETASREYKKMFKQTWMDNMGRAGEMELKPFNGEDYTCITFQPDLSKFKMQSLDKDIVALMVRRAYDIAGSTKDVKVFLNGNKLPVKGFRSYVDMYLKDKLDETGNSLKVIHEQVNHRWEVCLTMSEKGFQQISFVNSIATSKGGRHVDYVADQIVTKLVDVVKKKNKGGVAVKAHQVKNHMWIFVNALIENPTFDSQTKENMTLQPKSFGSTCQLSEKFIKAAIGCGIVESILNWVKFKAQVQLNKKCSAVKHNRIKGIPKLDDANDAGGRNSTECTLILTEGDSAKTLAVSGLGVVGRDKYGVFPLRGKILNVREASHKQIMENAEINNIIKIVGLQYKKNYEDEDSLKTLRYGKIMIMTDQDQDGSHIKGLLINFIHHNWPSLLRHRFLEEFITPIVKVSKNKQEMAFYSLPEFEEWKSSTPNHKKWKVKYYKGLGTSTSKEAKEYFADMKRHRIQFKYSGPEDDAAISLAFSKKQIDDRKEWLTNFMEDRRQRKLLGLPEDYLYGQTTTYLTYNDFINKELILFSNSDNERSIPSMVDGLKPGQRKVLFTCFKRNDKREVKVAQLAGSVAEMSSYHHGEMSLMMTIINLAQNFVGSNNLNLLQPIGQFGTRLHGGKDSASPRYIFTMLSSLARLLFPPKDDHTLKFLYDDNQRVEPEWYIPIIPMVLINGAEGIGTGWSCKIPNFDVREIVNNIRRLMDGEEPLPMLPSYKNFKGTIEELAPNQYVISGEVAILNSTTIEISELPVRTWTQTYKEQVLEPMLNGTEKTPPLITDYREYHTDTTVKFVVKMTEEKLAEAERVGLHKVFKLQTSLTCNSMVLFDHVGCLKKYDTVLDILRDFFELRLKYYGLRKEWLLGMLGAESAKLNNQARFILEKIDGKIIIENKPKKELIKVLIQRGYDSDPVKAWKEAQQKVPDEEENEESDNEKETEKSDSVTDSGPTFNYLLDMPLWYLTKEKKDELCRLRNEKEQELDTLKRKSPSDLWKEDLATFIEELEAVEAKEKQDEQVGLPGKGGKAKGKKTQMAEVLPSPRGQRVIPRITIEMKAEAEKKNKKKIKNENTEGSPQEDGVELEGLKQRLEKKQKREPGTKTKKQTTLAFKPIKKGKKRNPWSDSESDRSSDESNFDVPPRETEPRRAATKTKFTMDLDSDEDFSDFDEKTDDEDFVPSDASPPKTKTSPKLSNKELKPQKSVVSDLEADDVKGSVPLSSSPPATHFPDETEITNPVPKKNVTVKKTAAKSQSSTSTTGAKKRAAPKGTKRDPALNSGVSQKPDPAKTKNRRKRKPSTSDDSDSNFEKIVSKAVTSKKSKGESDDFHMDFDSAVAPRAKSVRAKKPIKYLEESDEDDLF
The subject of experiment [8] is HL-60. Description: Cytotoxicity against human HL60 cells treated under dark condition after 24 hrs by trypan blue assay. The class given is functional, cell-based. The note with it: HL-60, 24 h.
The test system of experiment [9] is Nucleic Acid. Description: Stabilization of supercoiled pBR322 DNA-human recombinant topoisomerase 2 complex assessed as linear DNA formation at 8 uM after 60 mins. The class given is nucleic-acid assay. The note with it: Escherichia coli.
For experiment [10], the system named is Nucleic Acid. As to the kind of experiment: Induction of Escherichia coli supercoiled pBR322 DNA cleavage at 5 uM after 30 mins by gel electrophoresis. The class given is nucleic-acid assay.
Experiment [11] has as its system Nucleic Acid. As to the kind of experiment: Induction of Escherichia coli supercoiled pBR322 DNA cleavage at up to 200 uM after 30 mins by gel electrophoresis. The class given is nucleic-acid assay.
In experiment [12] the test system is Nucleic Acid. As to the kind of experiment: Induction of Escherichia coli supercoiled pBR322 DNA cleavage at 50 uM after 30 mins by gel electrophoresis. The class given is nucleic-acid assay.

As a reminder, the IC50 is the concentration needed to halve the response being measured.

Active and inactive are the calls of the source. No cut-off for these calls is given here. A value given as a limit tells only on which side of the number the result lay.

With `CCN(CC)CCCNC(=O)c1nnc(C(=O)NCCCN(CC)CC)c2c1oc1c(C)c3oc(=O)cc(C)c3cc12`, in the experiment with Nucleic Acid [1], the result was inactive. Moreover, the half-inhibitory concentration (IC50) is 3.5 µM with HeLa [2]; 0.8 µM in the experiment with HL-60 [3]; 0.37 µM in the experiment with HL-60 [5]; 14.7 µM in the experiment with HeLa [6]; 0.9 µM in the experiment on HL-60 [8]. In addition, the outcome with Nucleic Acid [4], in the experiment on Nucleic Acid [9] and with Nucleic Acid [10] was Active. The Activity result in [7] is “Dose-dependent effect”.

Regarding `Cc1cc(=O)oc2c(C)c3oc4c(C(=O)NCCN(C)C)nnc(C(=O)NCCN(C)C)c4c3cc12`, the IC50 was 2.4 µM in the experiment with HeLa [2]; 1.3 µM in the experiment with HL-60 [3]; 0.41 µM in the experiment with HL-60 [5]; 11.9 µM with HeLa [6]; 0.9 µM in the experiment with HL-60 [8]. The outcome in the experiment on Nucleic Acid [4] was Active.

Turning to `CCN(CC)CCNC(=O)c1nnc(C(=O)NCCN(CC)CC)c2c1oc1c(C)c3oc(=O)cc(C)c3cc12`, the IC50 in the experiment with HeLa [2] was found to be 4.4 µM; in the experiment with HL-60 [3], 3.5 µM; in the experiment on HL-60 [5], 0.57 µM; in the experiment with HeLa [6] it was 17.2 µM; with HL-60 [8] it was 1.2 µM. Besides, the result in the experiment on Nucleic Acid [4] was Active.

In the case of `COc1c2occc2cc2ccc(=O)oc12` [METHOXSALEN], the IC50 with HL-60 [5] and in the experiment on HL-60 [8] was greater than 20 µM throughout.

For the molecule `Cc1cc(=O)oc2c(C)c3oc4c(C(=O)NCCCN(C)C)nnc(C(=O)NCCCN(C)C)c4c3cc12`, the concentration for half-maximal inhibition (IC50) was found to be 3.7 µM with HeLa [2]; 2.6 µM in the experiment with HL-60 [3]; 0.61 µM in the experiment on HL-60 [5]; 11.5 µM in the experiment on HeLa [6]; 3.8 µM in the experiment on HL-60 [8]. Also, in the experiment on Nucleic Acid [4], the outcome was Active.

As to `Cc1cc(=O)oc2c(C)c3oc4cnncc4c3cc12`, the IC50 is 3.8 µM in the experiment on HeLa [2]; 4.1 µM in the experiment on HL-60 [3]; 2.6 µM in the experiment on HL-60 [5]; 8.5 µM with HeLa [6]; 3.9 µM in the experiment with HL-60 [8]. In the experiment with Nucleic Acid [4], the result was Active. Moreover, the Activity result in experiment [7] was “Dose-dependent effect”. Besides, in the experiment on Nucleic Acid [11], the result was inactive.

In the case of `COc1cc(NS(C)(=O)=O)ccc1Nc1c2ccccc2nc2ccccc12`, the result with Nucleic Acid [9] was Active.

`CCN(CC)CCCNC(=O)c1nncc2oc3c(C)c4oc(=O)cc(C)c4cc3c12`: the result with Nucleic Acid [12] and with Nucleic Acid [4] was Active. Besides, the IC50 was 7.4 µM in the experiment on HeLa [2]; 2.2 µM with HL-60 [3]; 0.9 µM in the experiment with HL-60 [5]; 11.5 µM in the experiment with HeLa [6]; 2.1 µM with HL-60 [8]. In experiment [7], the Activity result was “Dose-dependent effect”.
